ChEMBL document CHEMBL5303304, “EUbOPEN Chemogenomics Library - IncuCyte” (2023)

Key:
Format in all cases: toxicity, cell-based
[1] = tested on: Fibroblast; assay: Incucyte cell viability with human fibroblast; conditions: 10 µM, compound concentration 10 uM
[2] = tested on: HEK-293T; assay: Incucyte cell viability with HEK293T; conditions: human, 10 µM, compound concentration 10 uM
[3] = tested on: U2OS; assay: Incucyte cell viability with U2OS; conditions: human, 10 µM, compound concentration 10 uM
Also: unitless GR value; below 1 slowed growth and below 0 cell loss.

| SMILES | Growth Rate ([1]; 0 h, replicate number 1) | Growth Rate ([1]; 12 h, replicate number 2) | Growth Rate ([1]; 18 h, replicate number 2) | Growth Rate ([1]; 24 h, replicate number 1) | Growth Rate ([1]; 24 h, replicate number 2) | Growth Rate ([2]; 0 h, replicate number 1) | Growth Rate ([2]; 0 h, replicate number 2) | Growth Rate ([2]; 12 h, replicate number 2) | Growth Rate ([2]; 18 h, replicate number 1) | Growth Rate ([2]; 18 h, replicate number 2) | Growth Rate ([2]; 24 h, replicate number 1) | Growth Rate ([2]; 24 h, replicate number 2) | Growth Rate ([3]; 12 h, replicate number 1) | Growth Rate ([3]; 18 h, replicate number 1) | Growth Rate ([3]; 18 h, replicate number 2) | Growth Rate ([3]; 24 h, replicate number 1) | Growth Rate ([3]; 24 h, replicate number 2) | Growth Rate ([1]; 0 h, replicate number 2) | Growth Rate ([3]; 0 h, replicate number 1) | Growth Rate ([2]; 6 h, replicate number 2) | further results |
| --- | --- | --- | --- | --- | --- | --- | --- | --- | --- | --- | --- | --- | --- | --- | --- | --- | --- | --- | --- | --- | --- |
| CNc1nc(-c2ccc3c(N)n[nH]c3c2)cc(N2C[C@@H](C(=O)NC3CCCCC3)CC[C@H]2C)n1 | -0.99 | 0.96 | 0.7 | 0.22 | 0.64 | -1 | -0.02 | 0.66 | 0.8 | 0.55 | 0.72 | 0.55 | 0.7 | 0.49 | 0.82 | 0.51 | 0.72 | – | – | – | Growth Rate ([1]; 12 h, replicate number 1): 0.62; Growth Rate ([1]; 18 h, replicate number 1): 0.38; Growth Rate ([2]; 12 h, replicate number 1): 0.89; Growth Rate ([3]; 12 h, replicate number 2): 0.8 |
| CCn1c(-c2nonc2N)nc2cncc(C(=O)N3CC[C@H](N)C3)c21.Cl | -1 | – | – | – | – | -0.71 | -0.15 | – | – | – | – | – | – | – | 0.88 | – | 0.79 | -0.88 | -1 | – | – |
| CCc1nc(-c2cccc(C)c2)c(-c2ccncc2)s1 | -0.98 | – | – | – | – | -0.67 | – | – | 0.99 | – | – | – | – | – | – | – | – | 0.64 | – | 0.9 | Growth Rate ([1]; 6 h, replicate number 2): 1; Growth Rate ([1]; 12 h, replicate number 1): 0.95; Growth Rate ([3]; 0 h, replicate number 2): 0.65; Growth Rate ([3]; 6 h, replicate number 2): 0.83 |
| Cc1cc(NC(=O)c2cccc(NC(=O)/C=C/CN(C)C)c2)ccc1Nc1nccc(-c2cccnc2)n1 | -1 | -0.15 | -0.3 | -0.22 | -0.29 | 0 | 0.65 | -0.35 | -0.23 | -0.32 | -0.19 | -0.26 | 0.69 | 0.46 | 0.93 | 0.29 | 0.51 | 0.14 | -1 | -0.41 | Growth Rate ([1]; 6 h, replicate number 1): 0.07; Growth Rate ([1]; 6 h, replicate number 2): 0.32; Growth Rate ([1]; 12 h, replicate number 1): -0.2; Growth Rate ([1]; 18 h, replicate number 1): -0.24; Growth Rate ([2]; 6 h, replicate number 1): -0.35; Growth Rate ([2]; 12 h, replicate number 1): -0.26 |
| OCC1OC(n2cnc3cc(Cl)c(Cl)cc32)C(O)C1O (stereo unspecified) | -0.9 | 0.42 | 0.86 | 0.84 | 0.78 | 0.64 | 0.84 | 0.83 | 0.48 | 0.74 | 0.55 | 0.82 | 0.53 | 0.33 | 0.94 | – | – | -0.97 | – | 0.29 | Growth Rate ([1]; 6 h, replicate number 2): 0.4; Growth Rate ([2]; 6 h, replicate number 1): 0.33; Growth Rate ([2]; 12 h, replicate number 1): 0.43; Growth Rate ([3]; 0 h, replicate number 2): 0.83; Growth Rate ([3]; 6 h, replicate number 2): 0.95 |
| NS(=O)(=O)c1ccc(Nc2nc(OCC3CCCCC3)c3nc[nH]c3n2)cc1 | -1 | 0.55 | 0.56 | – | – | 0.76 | – | 0.98 | – | 0.9 | – | 0.82 | 0.53 | 0.8 | 0.94 | 0.87 | 0.93 | – | -0.84 | – | Growth Rate ([3]; 6 h, replicate number 1): -0.3 |
| CNS(=O)(=O)c1ccc(N(C)C)c(Nc2ncnc3cc(OC)c(OC)cc23)c1 | -1 | 0.32 | 0.4 | 0.51 | 0.29 | -0.66 | 0.17 | 0.6 | 0.88 | 0.42 | 0.79 | 0.47 | 0.84 | 0.85 | 0.39 | 0.8 | 0.71 | – | -1 | 0.92 | Growth Rate ([1]; 18 h, replicate number 1): 0.69; Growth Rate ([3]; 6 h, replicate number 2): 0.65; Growth Rate ([3]; 12 h, replicate number 2): 0.6 |
